Target: T1, recombinant CYB5R1 (Δ1–29) (Homo sapiens, UniProt Q9UHQ9)
T1 construct: soluble form lacking first 29 residues (membrane anchor); His6-SUMO (Smt3) fusion cleaved by Ulp1; E. coli SoluBL21
T1 sequence (Q9UHQ9 30-305): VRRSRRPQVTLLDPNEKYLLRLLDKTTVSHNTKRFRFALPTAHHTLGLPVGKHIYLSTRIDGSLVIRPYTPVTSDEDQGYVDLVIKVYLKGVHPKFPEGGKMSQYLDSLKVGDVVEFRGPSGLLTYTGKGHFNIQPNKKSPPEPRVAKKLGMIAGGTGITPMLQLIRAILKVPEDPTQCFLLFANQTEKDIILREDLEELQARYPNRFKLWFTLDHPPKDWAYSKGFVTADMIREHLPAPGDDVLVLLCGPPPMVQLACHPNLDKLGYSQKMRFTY
Test: NADH consumption at […] nm
Type: biochemical
Conditions: 200 uM CoQ0; 500 uM NADH; 100 mM Tris-HCl pH 7.4; no CYB5B

## COC1=C(OC)C(=O)C(C)=CC1=O [CoQ0, 2,3-dimethoxy-5-methyl-1,4-benzoquinone]
  NADH consumption at 340 nm: recombinant CYB5R1 readily reduced CoQ0, a water-soluble derivative of CoQ10
